Results as given in patent US10626081B2, “Farnesoid X receptor agonists and uses thereof” (Metacrine, Inc., priority 2015, dated 2020).

Target: T1, FXR (Homo sapiens, UniProt Q96RI1)
T1 construct: expressed in transfected cells; host or cells: CV-1 cells
T1 sequence (Q96RI1 1-486): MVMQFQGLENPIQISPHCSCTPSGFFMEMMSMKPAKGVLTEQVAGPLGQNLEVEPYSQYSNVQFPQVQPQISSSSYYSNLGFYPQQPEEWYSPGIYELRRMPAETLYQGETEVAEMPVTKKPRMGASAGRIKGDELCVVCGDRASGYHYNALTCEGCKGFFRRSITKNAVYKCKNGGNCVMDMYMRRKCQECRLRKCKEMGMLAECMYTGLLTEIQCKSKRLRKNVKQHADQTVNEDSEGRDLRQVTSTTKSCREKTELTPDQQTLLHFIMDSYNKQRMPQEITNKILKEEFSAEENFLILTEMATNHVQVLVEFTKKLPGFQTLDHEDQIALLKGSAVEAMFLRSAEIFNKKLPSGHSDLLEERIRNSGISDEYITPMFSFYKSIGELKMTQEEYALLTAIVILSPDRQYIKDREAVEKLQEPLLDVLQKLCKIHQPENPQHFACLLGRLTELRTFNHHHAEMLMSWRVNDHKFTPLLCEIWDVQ
T1 sequence (P19793 1-462 partner): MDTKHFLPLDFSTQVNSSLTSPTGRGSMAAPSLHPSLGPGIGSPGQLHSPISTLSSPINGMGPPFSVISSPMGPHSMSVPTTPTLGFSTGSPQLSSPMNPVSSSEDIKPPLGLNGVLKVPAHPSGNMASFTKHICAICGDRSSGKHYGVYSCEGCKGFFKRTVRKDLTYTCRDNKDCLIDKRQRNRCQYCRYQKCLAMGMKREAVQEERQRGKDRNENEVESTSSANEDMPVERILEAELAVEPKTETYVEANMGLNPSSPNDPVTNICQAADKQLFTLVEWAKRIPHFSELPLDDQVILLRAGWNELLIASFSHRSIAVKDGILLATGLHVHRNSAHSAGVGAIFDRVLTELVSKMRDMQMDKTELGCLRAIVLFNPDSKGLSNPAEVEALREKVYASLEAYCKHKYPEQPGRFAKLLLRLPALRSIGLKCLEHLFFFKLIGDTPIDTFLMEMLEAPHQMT
Assay: In Vitro FXR Assay (TK): TK-ECRE-luc reporter in transfected CV-1 cells
Assay type: cell-based
Settings: CV-1 cells transfected with hFXR, hRXR, 18 h incubation, luminescence
Protocol: Example B-2: In Vitro FXR Assay (TK)
CV-1 cells were seeded at a density of 2,000,000 cells in a T175 flask with DMEM+10% charcoal double-stripped FBS and incubated at 37° C. in 5% CO2 for 18 h (O/N).
After 18 h of incubation, the medium in the T175 flask was changed with fresh DMEM+10% charcoal super-stripped serum. In a polypropylene tube, 2500 μL OptiMEM (Life Technologies, Cat #31985-062) was combined with expression plasmids for hFXR, hRXR, TK-ECRE-luc and pCMX-YFP. The tube was then briefly vortexed and incubated at room temperature for 5 minutes. Transfection reagent (X-tremeGENE HP from Roche, Cat #06 366 236 001) was added to the OptiMEM/plasmid mixture vortexed and incubated at room temperature for 20 minutes. Following incubation, the transfection reagent/DNA mixture complex was added to cells in the T175 flask and the cells were incubated at 37° C. in 5% CO2 for 18 h (O/N).
Compounds were serially diluted in DMSO and added to transfected CV-1 cells. The cells were then incubated for 18 hrs. The next day cells were lysed and examined for luminescence.

EC50 | Structure (SMILES)
1000 to 10000 nM | COC(=O)/C=C/c1cccc(N(Cc2ccc(-c3ccc(N(C)C)cc3)cc2C#N)C(=O)C2CCCCC2)c1 [62.12, (E)-Methyl 3-(3-(N-((3-cyano-4′-(dimethylamino)-[1,1′-biphenyl]-4-yl)methyl)cyclohexanecarboxamido)phenyl) acrylate]
1000 to 10000 nM | COC(=O)/C=C/c1cc(C#N)cc(N(Cc2ccc(-c3ccc(N(C)C)cc3)cc2)C(=O)C2CCCCC2)c1 [86.9, (E)-Methyl 3-(3-cyano-5-(N-((4′-(dimethylamino)-[1,1′-biphenyl]-4-yl)methyl)cyclohexanecarboxamido)phenyl) acrylate]
> 10000 nM | COC(=O)/C=C/c1cccc(N(Cc2ccc(-c3ccc(S(C)(=O)=O)c(F)c3)cc2)C(=O)C2CCCCC2)c1 [75.7, (E)-Methyl 3-(3-(N-((3′-fluoro-4′-(methylsulfonyl)-[1,1′-biphenyl]-4-yl)methyl)cyclohexanecarboxamido)phenyl) acrylate]
≤ 1000 nM | COC(=O)/C=C/c1cccc(N(Cc2ccc(-c3ccc(N(C)C)cc3)cc2)C(=O)[C@H]2CC[C@H](NC(C)=O)CC2)c1 [98.1, trans-(E)-Methyl 3-(3-(4-acetamido-N-((4′-(dimethylamino)-[1,1′-biphenyl]-4-yl)methyl)cyclohexanecarboxamido)phenyl)acrylate]
> 10000 nM | CN(C)c1ccc(-c2ccc(CN(C(=O)C3CCCCC3)c3cccc(/C=C/C(=O)OC4CCCCC4)c3)cc2)cc1 [86.1, (E)-Cyclohexyl 3-(3-(N-((4′-(dimethylamino)-[1,1′-biphenyl]-4-yl)methyl)cyclohexanecarboxamido)phenyl) acrylate]
≤ 1000 nM | COC(=O)/C=C/c1cccc(N(Cc2ccc(-c3ccc4c(c3)OCO4)cc2)C(=O)C2CCCCC2)c1 [62.9, (E)-Methyl 3-(3-(N-(4-(benzo[d][1,3]dioxol-5-yl)benzyl)cyclohexanecarboxamido)phenyl) acrylate]
1000 to 10000 nM | COC(=O)/C=C/c1cc(N(Cc2ccc(-c3ccc(N(C)C)cc3)cc2)C(=O)C2CCCCC2)cc(C(F)(F)F)c1 [86.11, (E)-Methyl 3-(3-(N-((4′-(dimethylamino)-[1,1′-biphenyl]-4-yl)methyl)cyclohexanecarboxamido)-5-(trifluoromethyl)phenyl)acrylate]
1000 to 10000 nM | CN(C)c1ccc(-c2ccc(CN(C(=O)C3CCCCC3)c3cccc(/C=C/C(=O)OCC(F)(F)F)c3)cc2)cc1 [86.6, (E)-2,2,2-Trifluoroethyl 3-(3-(N-((4′-(dimethylamino)-[1,1′-biphenyl]-4-yl)methyl)cyclohexanecarboxamido)phenyl) acrylate]
> 10000 nM | CN(C)c1ccc(-c2ccc(CN(C(=O)C3CCCCC3)c3cccc(/C=C/C(=O)OCc4ccccc4)c3)cc2)cc1 [86.7, (E)-Benzyl 3-(3-(N-((4′-(dimethylamino)-[1,1′-biphenyl]-4-yl)methyl)cyclohexanecarboxamido)phenyl) acrylate]
1000 to 10000 nM | COC(=O)/C=C/c1cccc(N(Cc2ccc(-c3ccc(N(C)C)nn3)cc2)C(=O)C2CCCCC2)c1 [75.5, (E)-Methyl 3-(3-(N-(4-(6-(dimethylamino)pyridazin-3-yl)benzyl)cyclohexanecarboxamido)phenyl) acrylate]
1000 to 10000 nM | COC(=O)/C=C/c1cccc(N(Cc2ccc(-c3ccc4cnsc4c3)cc2)C(=O)C2CCCCC2)c1 [75.16, (E)-Methyl 3-(3-(N-(4-(benzo[d]isothiazol-6-yl)benzyl)cyclohexanecarboxamido)phenyl) acrylate]
1000 to 10000 nM | COC(=O)/C=C/c1cccc(N(Cc2ccc(-c3cnc(N(C)C)cn3)cc2)C(=O)C2CCCCC2)c1 [75.4, (E)-Methyl 3-(3-(N-(4-(5-(dimethylamino)pyrazin-2-yl)benzyl)cyclohexanecarboxamido)phenyl) acrylate]
≤ 1000 nM | COC(=O)/C=C/c1cccc(N(Cc2ccc(-c3ccc4c(C)nsc4c3)cc2)C(=O)C2CCCCC2)c1 [75.19, (E)-Methyl 3-(3-(N-(4-(3-methylbenzo[d]isothiazol-6-yl)benzyl)cyclohexanecarboxamido)phenyl) acrylate]

Further lines, the molecule ahead of its results:

Structure (SMILES) | EC50
COC(=O)/C=C/c1cccc(N(Cc2ccc(-c3ccc(N(C)C)cc3)cc2)C(=O)C2CCC(=O)CC2)c1 [compound 17, (E)-Methyl 3-(3-(N-((4′-(dimethylamino)-[1,1′-biphenyl]-4-yl)methyl)-4-oxocyclohexanecarboxamido)phenyl)acrylate] | ≤ 1000 nM
CC(C)=CCc1cccc(N(Cc2ccc(-c3ccc(N(C)C)cc3)cc2)C(=O)C2CCCCC2)c1 [compound 99, N-((4′-(Dimethylamino)-[1,1′-biphenyl]-4-yl)methyl)-N-(3-(3-methylbut-2-en-1-yl)phenyl) cyclohexanecarboxamide] | > 10000 nM
COC(=O)/C=C/c1cccc(N(Cc2ccc(-c3ccc(N(C)C)cc3)cc2)C(=O)c2cccc(OC)c2)c1 [13.10, (E)-Methyl 3-(3-(N-((4′-(dimethylamino)-[1,1′-biphenyl]-4-yl)methyl)-3-methoxybenzamido)phenyl)acrylate] | 1000 to 10000 nM
COC(=O)/C=C/c1cccc(N(Cc2ccc(-c3ccc(N(C)C)cc3)cc2)C(=O)[C@H]2CC[C@H](S(C)(=O)=O)CC2)c1 [13.15, trans-(E)-methyl 3-(3-(N-((4′-(dimethylamino)-[1,1′-biphenyl]-4-yl)methyl)-4-(methylsulfonyl)cyclohexanecarboxamido)phenyl)acrylate] | 1000 to 10000 nM
COC(=O)/C=C/c1cccc(N(Cc2ccc(-c3ccc(N(C)C)cc3)cc2)C(=O)C2CCC(SC)CC2)c1 (stereo not shown) [13.13, (E)-Methyl 3-(3-(N-((4′-(dimethylamino)-[1,1′-biphenyl]-4-yl)methyl)-4-(methylthio)cyclohexanecarboxamido)phenyl)acrylate] | 1000 to 10000 nM
COC(=O)/C=C/c1cccc(N(Cc2ccc(-c3ccc(N(C)C)cc3)cc2)C(=O)[C@H]2CC[C@H](NC(=O)OC(C)(C)C)CC2)c1 [compound 96, (E)-Methyl 3-(3-(trans-4-((tert-butoxycarbonyl)amino)-N-((4′-(dimethylamino)-[1,1′-biphenyl]-4-yl)methyl)cyclohexanecarboxamido)phenyl) acrylate] | ≤ 1000 nM
COC(=O)/C=C/c1cccc(N(Cc2ccc(-c3ccc(N(C)C)cc3)cc2)C(=O)[C@@H]2CCCC[C@H]2O)c1 (relative stereo) [13.25, trans-(E)-Methyl 3-(3-(N-((4′-(dimethylamino)-[1,1′-biphenyl]-4-yl)methyl)-2-hydroxycyclohexanecarboxamido)phenyl)acrylate] | 1000 to 10000 nM
COC(=O)/C=C/c1cc(F)cc(N(Cc2ccc(-c3ccc(N(C)C)cc3)cc2)C(=O)C2CC3CCC2C3)c1 (stereo not shown) [13.5, (E)-Methyl 3-(3-(N-((4′-(dimethylamino)-[1,1′-biphenyl]-4-yl)methyl)bicyclo[2.2.1]heptane-2-carboxamido)-5-fluorophenyl)acrylate] | ≤ 1000 nM
COC(=O)/C=C/c1cccc(N(Cc2ccc(NCc3ccccc3)cc2)C(=O)C2CCCCC2)c1 [compound 102, (E)-Methyl 3-(3-(N-(4-(benzylamino)benzyl)cyclohexane-carboxamido)phenyl)acrylate] | 1000 to 10000 nM
COC(=O)/C=C/c1cccc(N(Cc2ccc(-c3ccc(N(C)C)cc3)cc2)C(=O)c2ccccc2OC)c1 [13.7, (E)-Methyl 3-(3-(N-((4′-(dimethylamino)-[1,1′-biphenyl]-4-yl)methyl)-2-methoxybenzamido)phenyl)acrylate] | ≤ 1000 nM
COC(=O)/C=C/c1cccc(N(Cc2ccc(-c3ccc(N(C)C)cc3)cc2)C(=O)C2CCC(=O)NC2)c1 (stereo not shown) [13.17, (E)-Methyl 3-(3-(N-((4′-(dimethylamino)-[1,1′-biphenyl]-4-yl)methyl)-6-oxopiperidine-3-carboxamido)phenyl)acrylate] | 1000 to 10000 nM
COC(=O)/C=C/c1cccc(N(Cc2ccc(-c3ccc(N(C)C)cc3)cc2)C(=O)[C@@H]2CCC[C@@H](O)C2)c1 (relative stereo) [13.28, trans-(E)-Methyl 3-(3-(N-((4′-(dimethylamino)-[1,1′-biphenyl]-4-yl)methyl)-3-hydroxycyclohexanecarboxamido)phenyl)acrylate] | > 10000 nM
